Molecules are shown by their SMILES.

Usually melting point stands for the temperature, or range, at which the solid turns liquid.

For the compound `CC(C)c1cccc(C(C)C)c1NC(=O)NS(=O)(=O)Cl`, the melting point lay within 130 to 134 °C.

Turning to `Clc1ccc2[nH]c3c(c2c1)CCN1CCCC=C31`, the melting point stood at 114 °C.

`C=CCOc1ccc(-c2ccc(Cl)nn2)c(OCC(O)CNC(C)(C)C)c1` (stereo not given) returned a melting point of 93 to 94 °C.

Compound `CN(C)/C=C/C(=O)c1ccc(OCCCCN2C(=O)c3ccccc3C2=O)cc1` registered a melting point of 109 to 111 °C.

In turn, `CC(C)(C)NS(=O)(=O)c1ccc(C(=O)c2ccc(Cl)cc2)cc1F` came in with a melting point of 152 °C.

With `NC(Cc1ccc(C(=O)c2ccccc2)cc1)C(=O)O` (racemic), the melting point was 217 °C.

In the case of `NC(=S)c1cccc(-c2cccc(C(N)=S)c2)c1`, the melting point lay within 188 to 190 °C.

For `O=C(O)Cc1nn(Cc2ccc(Br)cc2F)c2ccccc12`, the melting point fell in the range of 167 to 168 °C.

In the case of `Cc1nc(OCc2cccc(C(F)(F)F)c2)c(C(=O)Nc2ccccc2)s1`, the melting point was found to be 113 °C.

Turning to `CN(C)c1ccc(NC(=O)N(C[C@H]2CC[C@H](CN(C(=O)Nc3ccc(N(C)C)cc3)C3CCCC3)CC2)C2CCCC2)cc1`, the melting point fell in the range of 162 to 165 °C.

In turn, `C[C@@H]1OC(=O)C[C@H]2O[C@@H]12` returned a melting point of 51 to 52 °C.

Turning to `CCOC(=O)c1ccc2c(CCN)c[nH]c2c1`, the melting point fell in the range of 169 to 172 °C.

On to `CCCCOc1ccc2c(c1)CCC(C(=O)O)=C2`, for which the melting point was 148 to 150 °C.

For `Cn1cccc1C(=O)C(C#N)C(=O)Nc1ccc(F)cc1` (stereo not given), the melting point was in the range of 198 to 199 °C.

Compound `NC(=O)C=Cc1cc2c(Oc3ccc(Br)cc3)cncc2s1` had a melting point of 195 to 196 °C.

As to `CC(=O)Nc1nc(CCc2ccc(NC(=O)OC(C)(C)C)cc2)c(C(=O)Nc2ccccc2)s1`, the melting point lay in the range of 199 to 200 °C.

Turning to `COc1ccc(C(=O)NNC(=O)C(F)(F)F)cc1`, the melting point was 147 to 148 °C.

`CCOC(=O)c1ccc(NCCCOc2ccc(Cl)cc2)cc1` displayed a melting point of 87 to 88 °C.

In the case of `COc1cccc2c1CN(c1c(F)cc3c(=O)c(C(=O)O)cn4c3c1OCC4C)C2` (stereo not given), the melting point was 262 to 264 °C.

For the compound `COc1ccccc1-n1cc(-c2ccccc2)c(OCC(=O)O)n1`, the melting point lay in the range of 170 to 174 °C.

Take `O=C1CCC2c3ccccc3CCC2N1` (stereo not given): the melting point is 227 to 228 °C.

Compound `Cc1ccc2c(c1)C1c3cc4c(cc3OCC1NC2=O)OCO4` (stereo not given) returned a melting point above 250 °C.

For the compound `c1cc2cc(CSc3nnc(-c4ccc5c(c4)CCO5)o3)ccc2o1`, the melting point lay in the range of 145 to 147 °C.

The compound `CCCc1nc2c(N)nc3cc(OCCN4CCCC4=O)ccc3c2s1` displayed a melting point of 163 to 166 °C.

`O=S(=O)(Nc1ccc2c(OCc3cccc(-c4ccc(C(F)(F)F)cc4)n3)cccc2c1)C(F)(F)F` displayed a melting point of 180 to 182 °C.

Compound `Cc1ccc(C2SC(=O)NC2=O)cc1C` (stereo not given) had a melting point of 121 to 122 °C.

In the case of `O=C(OC1CCCC1=O)c1ccccc1` (stereo not given), the melting point was 87 to 88 °C.

`Cc1nc2c(OCc3c(Cl)ccc(S(=O)(=O)N4CCC[C@H]4C(=O)NCCCNC(=O)c4ccc(C=NN)cc4)c3Cl)cccn2c1Cl` registered a melting point of 115 °C.

Take `COC(=O)c1c(C(F)(F)C(F)(F)F)[nH]c(C(F)(F)C(F)(F)F)c1C(=O)OC`: the melting point was 68 to 71 °C.

As to `CCOC(=O)N(CCNc1ccc2ncc(Br)n2n1)c1ccccc1`, the melting point was in the range of 160 to 161 °C.

Regarding `NC1CCN(c2nc3c(cc2F)c(=O)c(C(=O)O)cn3CCF)C1` (stereo not given), the melting point lay in the range of 251 to 255 °C.

As to `NC/C(=C\F)COc1ccc(Cl)cc1Cl`, the melting point stood at 104 °C.

With `Cc1cc(SC(C)C)c(NC(=O)CSc2nc3ccccc3s2)c(SC(C)C)n1`, the melting point was in the range of 117 to 118 °C.

`COc1ccc(-c2n[nH]c3ccsc23)cc1`: the melting point was in the range of 143 to 144 °C.

Take `COc1ccc(C=O)c(Cl)c1OC(C)=O`: the melting point is 48 to 50 °C.

`CC(C)c1nccn1S(=O)(=O)c1c[nH]cn1` displayed a melting point of 118 to 120 °C.

`CCOC(=O)/C=C(/c1ccc(CC)cc1)c1cc(Cl)cc(Cl)c1` registered a melting point of 73 to 75 °C.

For the compound `O=C(c1ccc(F)cc1)c1ccc(Br)nc1`, the melting point lay in the range of 97 to 98 °C.

`CCOC(=O)C(=O)Nc1c([N+](=O)[O-])sc2ccc(Cl)cc12` came in with a melting point of 126 to 128 °C.

`CCC(=O)Oc1cc(C(C)C)ccc1C1(OC(=O)CC)C(=O)c2ccccc2C1=O` displayed a melting point of 123 to 125 °C.

In turn, `CCCCOc1ccc2c3c([nH]c2c1)CC(NC(C)=O)CC3` (stereo not given) registered a melting point of 182 to 184 °C.

For `CC(CNc1nc2ccccc2o1)C(=O)NCCCN(C)Cc1ccc(Cl)c(Cl)c1` (stereo not given), the melting point fell in the range of 134 to 135 °C.

`O[C@]1(c2ccccc2)CCS[C@H]2CN(Cc3ccccc3)C[C@H]21` (racemic): the melting point stood at 137 °C.

Compound `O=S(=O)(NCc1cccnc1)c1ccc(Br)s1` yielded a melting point of 125 °C.

Compound `C/C(=C(\C#N)C(=S)/N=C/N(C)C)N1CCCN(c2ccc(F)c(C)c2)CC1` came in with a melting point of 148 to 150 °C.

With `CC1(O)c2ccccc2C=C(Br)c2ccncc21` (stereo not given), the melting point fell in the range of 226 to 230 °C.

As to `COC(=O)CCc1ccc(OCC2CCN(c3ccncc3)CC2)cc1`, the melting point was 96.5 to 98.5 °C.

`COc1ccc(CN2N=C(c3ccc(OC)c(OC)c3)[C@@H]3CCCC[C@@H]3C2=O)cc1` (relative stereo) gave a melting point of 77 to 78 °C.

`CCOC(=O)c1cc(C#N)cc(CO)n1` gave a melting point of 87.5 °C.

Compound `Cc1c(-c2ccc(Cl)cc2F)sc2nc(N)[nH]c(=O)c12` gave a melting point of 320 to 340 °C.

For `CCCC1=C(C#N)C(c2ccccc2Cl)c2c(n[nH]c2C(C)C)N1` (stereo not given), the melting point is above 270 °C.

For `CCc1cc2c(-c3ccccc3OC)c(NC(=O)Nc3cc(C)c(OC(C)=O)c(C)c3)cnc2s1`, the melting point is 217 to 218 °C.

In the case of `Oc1cc2c3ccc(O)c(O)c3n(CCCc3ccccc3)c2cc1O`, the melting point was in the range of 246 to 252 °C.

Compound `CCOC(=O)CCCCC(=O)c1ccc2cc(O)ccc2c1` returned a melting point of 139 to 142 °C.

Regarding `CC(C)Cc1nc2ccc(C#N)cc2c(-c2ccccc2)c1CN`, the melting point lay within 128 to 130 °C.

On to `O=[N+]([O-])c1cc(C(F)(F)F)ccc1NCCCN1CCN(C(c2ccccc2)c2ccccc2)CC1`, for which the melting point came out at 114 °C.

`CC1(COc2ccc(N3CCN(c4ccc(C(F)(F)F)cc4)CC3)cc2)Cn2cc([N+](=O)[O-])nc2O1` (stereo not given): the melting point lay within 231 to 233 °C.

In the case of `O=[N+]([O-])c1cc(C(F)(F)F)cc2sc(=S)sc12`, the melting point was 163 to 165 °C.

In the case of `Nc1ccncc1Nc1ccc2cn[nH]c2c1`, the melting point fell in the range of 214 to 216 °C.

`CCC(=O)N[C@H]1CCc2c(ccc(OC)c2OC)C1` gave a melting point of 149 to 151 °C.

`Nc1c(Cl)cc(C(O)CNCCCCCCOCCCc2ccc(CO)cc2)cc1Cl` (stereo not given) showed a melting point of 56 to 59 °C.

For `CCC[C@@H]1COC(=O)N1c1nc(-c2ccc(C#N)cc2)cs1`, the melting point fell in the range of 131 to 133 °C.

The compound `O=C1N(Cc2ncccn2)c2ccccc2C12COc1cc3c(cc12)CCO3` (stereo not given) gave a melting point of 203 to 205 °C.

Take `CCOC(=O)c1noc(C2CC2)c1C(=O)c1ccc(Br)cc1CSC`: the melting point is 42 to 43 °C.

Turning to `CS(=O)(=O)c1ccc(-n2cc(-c3cccc(Cl)c3)nc2-c2ccc(Cl)cc2)cc1`, the melting point lay within 156 to 159 °C.

Values taken from a melting point compilation (Tetko et al.; mined from patent text by program, amines drawn as free bases though some values may be those of a salt).
